{
  "source": "ChEMBL document CHEMBL5506059",
  "about": "“Cyanomethylquinolones as a New Class of Potential Multitargeting Broad-Spectrum Antibacterial Agents” (J Med Chem, 2024)",
  "key": {"[1]": {"system": "Staphylococcus aureus", "test": "Antibacterial activity against methicillin resistant Staphylococcus aureus clinical isolate assessed as inhibition of bacterial growth incubated for 24 hrs", "format": "functional"}, "[2]": {"system": "Staphylococcus aureus", "test": "Antibacterial activity against Staphylococcus aureus clinical isolate assessed as inhibition of bacterial growth incubated for 24 hrs", "format": "functional"}, "[3]": {"system": "Staphylococcus aureus", "test": "Antibacterial activity against Staphylococcus aureus ATCC 25923 assessed as inhibition of bacterial growth incubated for 24 hrs", "format": "functional"}, "[4]": {"system": "Staphylococcus aureus", "test": "Antibacterial activity against Staphylococcus aureus ATCC 29213 assessed as inhibition of bacterial growth incubated for 24 hrs", "format": "functional"}, "[5]": {"system": "Enterococcus faecalis", "test": "Antibacterial activity against Enterococcus faecalis clinical isolate assessed as inhibition of bacterial growth incubated for 24 hrs", "format": "functional"}, "[6]": {"system": "Klebsiella pneumoniae", "test": "Antibacterial activity against Klebsiella pneumoniae clinical isolate assessed as inhibition of bacterial growth incubated for 24 hrs", "format": "functional"}, "[7]": {"system": "Escherichia coli", "test": "Antibacterial activity against Escherichia coli clinical isolate assessed as inhibition of bacterial growth incubated for 24 hrs", "format": "functional"}, "[8]": {"system": "Escherichia coli", "test": "Antibacterial activity against Escherichia coli ATCC 25922 assessed as inhibition of bacterial growth incubated for 24 hrs", "format": "functional"}, "[9]": {"system": "Pseudomonas aeruginosa", "test": "Antibacterial activity against Pseudomonas aeruginosa clinical isolate assessed as inhibition of bacterial growth incubated for 24 hrs", "format": "functional"}, "[10]": {"system": "Pseudomonas aeruginosa", "test": "Antibacterial activity against Pseudomonas aeruginosa ATCC 27853 assessed as inhibition of bacterial growth incubated for 24 hrs", "format": "functional"}, "[11]": {"system": "Acinetobacter baumannii", "test": "Antibacterial activity against Acinetobacter baumannii clinical isolate assessed as inhibition of bacterial growth incubated for 24 hrs", "format": "functional"}, "[12]": {"system": "Streptococcus pneumoniae", "test": "Antibacterial activity against Streptococcus pneumoniae ATCC 6305 assessed as inhibition of bacterial growth incubated for 24 hrs", "format": "functional"}, "[13]": {"system": "Streptococcus pyogenes", "test": "Antibacterial activity against Streptococcus pyogenes ATCC 19615 assessed as inhibition of bacterial growth incubated for 24 hrs", "format": "functional"}, "[14]": {"system": "Staphylococcus epidermidis", "test": "Antibacterial activity against Staphylococcus epidermidis ATCC 12228 assessed as inhibition of bacterial growth incubated for 24 hrs", "format": "functional"}, "[15]": {"system": "Staphylococcus aureus", "test": "Antibacterial activity against methicillin-resistant Staphylococcus aureus ATCC 43300 assessed as inhibition of bacterial growth incubated for 24 hrs", "format": "functional"}, "[16]": {"system": "Staphylococcus aureus", "test": "Antibacterial activity against Staphylococcus aureus ATCC 12600 assessed as inhibition of bacterial growth incubated for 24 hrs", "format": "functional"}, "[17]": {"system": "Staphylococcus aureus", "test": "Antibacterial activity against Staphylococcus aureus ATCC 6538 assessed as inhibition of bacterial growth incubated for 24 hrs", "format": "functional"}, "[18]": {"system": "Staphylococcus aureus", "test": "Antibacterial activity against Staphylococcus aureus CMCC(B)26003 assessed as inhibition of bacterial growth incubated for 24 hrs", "format": "functional"}, "[19]": {"system": "Staphylococcus aureus", "test": "Antibacterial activity against Staphylococcus aureus CMCC(B)26001 assessed as inhibition of bacterial growth incubated for 24 hrs", "format": "functional"}, "[20]": {"system": "Enterococcus faecium", "test": "Antibacterial activity against Enterococcus faecium ATCC 19434 assessed as inhibition of bacterial growth incubated for 24 hrs", "format": "functional"}, "[21]": {"system": "Enterococcus faecalis", "test": "Antibacterial activity against vancomycin-resistant Enterococcus faecalis clinical isolate p1-2007226001 assessed as inhibition of bacterial growth incubated for 24 hrs", "format": "functional"}, "[22]": {"system": "Enterococcus faecalis", "test": "Antibacterial activity against vancomycin-resistant Enterococcus faecalis clinical isolate p1-2007225053 assessed as inhibition of bacterial growth incubated for 24 hrs", "format": "functional"}, "[23]": {"system": "Streptococcus pyogenes", "test": "Potency index, ratio of norfloxacin MIC to test compound MIC for antibacterial activity against Streptococcus pyogenes ATCC 19615 assessed as inhibition of bacterial growth incubated for 24 hrs", "format": "functional"}, "[24]": {"system": "Streptococcus pyogenes", "test": "Potency index, ratio of ciprofloxacin MIC to test compound MIC for antibacterial activity against Streptococcus pyogenes ATCC 19615 assessed as inhibition of bacterial growth incubated for 24 hrs", "format": "functional"}, "[25]": {"system": "Erythrocyte", "test": "Hemolytic activity in human Red blood cells assessed as concentration required for 5% hemolysis measured after 1.5 hrs by absorbance based assay", "format": "toxicity, cell-based"}, "[26]": {"test": "Hemolytic activity in human Red blood cells at 32 ug/ml measured after 1.5 hrs by absorbance based assay relative to control", "format": "toxicity, cell-based, Erythrocyte", "details": "red blood cells (erythrocytes), at 32 µg/mL, read-out: Activity"}, "[27]": {"system": "L02", "test": "Cytotoxicity against human L02 cells assessed as reduction in cell viability at 0.78 to 25 ug/ml measured after 24 hrs by MTT assay", "format": "toxicity, cell-based", "details": "l02, 24 h, dose 0.78-25 µg/ml"}, "[28]": {"system": "HUVEC", "test": "Cytotoxicity against HUVEC cells assessed as reduction in cell viability at 0.78 to 25 ug/ml measured after 24 hrs by MTT assay", "format": "toxicity, cell-based", "details": "human, dose 0.78-25 µg/ml"}, "[29]": {"test": "Cytotoxicity against HUVEC cells assessed as cell viability at 25 ug/ml measured after 24 hrs by MTT assay relative to control", "format": "toxicity, cell-based", "details": "human, at 25 µg/mL, read-out: Activity"}, "[30]": {"test": "Cytotoxicity against human normal Squamous epithelial cell (NOK) assessed as inhibition of cell growth measured after 24 hrs by MTT assay", "format": "toxicity, cell-based", "details": "normal squamous epithelial cells (NOK)"}, "[31]": {"test": "Cytotoxicity against human FHC assessed as inhibition of cell growth measured after 24 hrs by MTT assay", "format": "toxicity, cell-based", "details": "FHC cells"}, "[32]": {"test": "Cytotoxicity against human FHC assessed as cell viability at 20 ug/ml measured after 24 hrs by MTT assay relative to control", "format": "toxicity, cell-based", "details": "FHC cells, at 20 µg/mL, read-out: Activity"}, "[33]": {"system": "Staphylococcus aureus", "test": "Resistance development in methicillin resistant Staphylococcus aureus assessed as increase in MIC measured after 20 days", "format": "functional, organism-based", "details": "time 20.0 day"}, "[34]": {"system": "Pseudomonas aeruginosa", "test": "Resistance development in Pseudomonas aeruginosa assessed as increase in MIC measured after 20 days", "format": "functional, organism-based", "details": "time 20.0 day"}, "[35]": {"system": "Calf thymus DNA", "test": "Binding affinity to calf thymus DNA assessed as DNA-compound complex formation by measuring hypochromism at 0 to 2.3 x 10^-8mol/L by UV absorption spectra based analysis", "format": "nucleic-acid assay", "details": "Bos taurus; dose 0-2.3 10^-8mol/L"}, "[36]": {"system": "Calf thymus DNA", "test": "Competitive binding affinity to calf thymus DNA assessed as displacement of neutral red from DNA-neutral red complex by measuring reduction in absorbance at 540 nm at 0 to 2.1x10^-8 mol/L by UV absorption spectroscopy", "format": "nucleic-acid assay", "details": "Bos taurus; dose 0-2.1 10^-8mol/L"}, "[37]": {"system": "Calf thymus DNA", "test": "Binding affinity to calf thymus DNA assessed as DNA-compound complex formation by measuring increase in absorption of DNA at 260 nm at 0 to 2.3 x 10^-8mol/L by UV absorption spectra based analysis", "format": "nucleic-acid assay", "details": "Bos taurus; dose 0-2.3 10^-8mol/L"}, "[38]": {"system": "Calf thymus DNA", "test": "Binding affinity to calf thymus DNA assessed as disruption of DNA confirmation by measuring blue shift at 0 to 2.3 x 10^-8mol/L by UV absorption spectra based analysis", "format": "nucleic-acid assay", "details": "Bos taurus; dose 0-2.3 10^-8mol/L"}},
  "note": "The source made the active and inactive calls. No cut-off for these calls is given here.",
  "data": [
    {"smiles": "N#CCc1cc2c(cc1F)c(=O)c(C(=O)O)cn2Cc1ccccc1Cl", "values": [
      {"measurement": "MIC", "setting": "[1]", "result": 256, "unit": "mg/L"},
      {"measurement": "MIC", "setting": "[2]", "result": 256, "unit": "mg/L"},
      {"measurement": "MIC", "setting": "[3]", "result": 0.25, "unit": "mg/L"},
      {"measurement": "MIC", "setting": "[4]", "result": 0.25, "unit": "mg/L"},
      {"measurement": "MIC", "setting": "[5]", "result": 256, "unit": "mg/L"},
      {"measurement": "MIC", "setting": "[6]", "result": 2, "unit": "mg/L"},
      {"measurement": "MIC", "setting": "[7]", "result": 0.25, "unit": "mg/L"},
      {"measurement": "MIC", "setting": "[8]", "result": 0.25, "unit": "mg/L"},
      {"measurement": "MIC", "setting": "[9]", "result": 0.25, "unit": "mg/L"},
      {"measurement": "MIC", "setting": "[10]", "result": 0.5, "unit": "mg/L"},
      {"measurement": "MIC", "setting": "[11]", "result": 0.5, "unit": "mg/L"},
      {"measurement": "MIC", "setting": "[12]", "result": 16, "unit": "mg/L"},
      {"measurement": "MIC", "setting": "[13]", "result": 0.25, "unit": "mg/L"},
      {"measurement": "MIC", "setting": "[14]", "result": 0.25, "unit": "mg/L"},
      {"measurement": "MIC", "setting": "[15]", "result": 4, "unit": "mg/L"},
      {"measurement": "MIC", "setting": "[16]", "result": 128, "unit": "mg/L"},
      {"measurement": "MIC", "setting": "[17]", "result": 4, "unit": "mg/L"},
      {"measurement": "MIC", "setting": "[18]", "result": 0.125, "unit": "mg/L"},
      {"measurement": "MIC", "setting": "[19]", "result": 0.25, "unit": "mg/L"},
      {"measurement": "MIC", "setting": "[20]", "result": 4, "unit": "mg/L"},
      {"measurement": "MIC", "setting": "[21]", "result": 64, "unit": "mg/L"},
      {"measurement": "MIC", "setting": "[22]", "result": 128, "unit": "mg/L"},
      {"measurement": "Ratio", "setting": "[23]", "result": 128},
      {"measurement": "Ratio", "setting": "[24]", "result": 64},
      {"measurement": "HC5", "setting": "[25]", "result": 64, "unit": "µg/mL"},
      {"measurement": "hemolysis at 1.5 h, 32 ug/ml", "setting": "[26]", "result": 4, "unit": "%"},
      {"measurement": "Activity", "setting": "[27]", "result": "Non-Toxic"},
      {"measurement": "Activity", "setting": "[28]", "result": "Non-Toxic"},
      {"measurement": "viability at 24 h, 25 ug/ml", "setting": "[29]", "result": "> 90", "unit": "%"},
      {"measurement": "IC50 at 24 h", "setting": "[30]", "result": 1.38, "unit": "mg/L"},
      {"measurement": "IC50 at 24 h", "setting": "[31]", "result": 141, "unit": "mg/L"},
      {"measurement": "viability at 24 h, 20 ug/ml", "setting": "[32]", "result": "> 80", "unit": "%"},
      {"measurement": "Activity", "setting": "[33]", "result": "inactive"},
      {"measurement": "Activity", "setting": "[34]", "result": "inactive"},
      {"measurement": "Activity", "setting": "[35]", "result": "Active"},
      {"measurement": "Activity", "setting": "[36]", "result": "Active"},
      {"measurement": "Activity", "setting": "[37]", "result": "Active"},
      {"measurement": "Activity", "setting": "[38]", "result": "Active"}
    ]}
  ]
}
